Results taken from patent publication US8809365B2, “1-substituted 2-azabicyclo [3.1.1] heptyl derivatives useful as nicotinic acetylcholine receptor modulators for treating neurologic disorders” (Universiteit Gent, priority 2009, dated 2014).

Key:
[1] = molecular target: human α7 neuronal nicotinic receptor (Homo sapiens, UniProt P36544); assay: biochemical; format: binding; details: read-out: % inhibition N neuronal alpha-BGTX-sensitive (alpha 7) (antagonist radioligand)
[2] = molecular target: human muscle-type nicotinic receptor (Homo sapiens, UniProt P02708+P07510+Q07001); assay: biochemical; format: binding; details: read-out: % inhibition N muscle-type (h) (antagonist radioligand)
human muscle-type nicotinic receptor, sequence (P07510 23-517): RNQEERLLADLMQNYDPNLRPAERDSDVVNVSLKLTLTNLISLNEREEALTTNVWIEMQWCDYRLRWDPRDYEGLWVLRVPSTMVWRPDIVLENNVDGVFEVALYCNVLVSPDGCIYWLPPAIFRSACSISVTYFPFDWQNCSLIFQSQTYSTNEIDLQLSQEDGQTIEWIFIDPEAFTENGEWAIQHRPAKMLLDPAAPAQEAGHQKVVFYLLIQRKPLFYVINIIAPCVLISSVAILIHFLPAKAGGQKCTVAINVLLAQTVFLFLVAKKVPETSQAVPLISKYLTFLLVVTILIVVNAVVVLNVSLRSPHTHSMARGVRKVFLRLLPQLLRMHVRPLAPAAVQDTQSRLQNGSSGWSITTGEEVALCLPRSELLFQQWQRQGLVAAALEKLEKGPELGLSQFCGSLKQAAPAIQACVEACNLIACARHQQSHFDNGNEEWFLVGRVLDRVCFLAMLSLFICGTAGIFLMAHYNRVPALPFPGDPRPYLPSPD
human muscle-type nicotinic receptor, sequence (Q07001 22-517): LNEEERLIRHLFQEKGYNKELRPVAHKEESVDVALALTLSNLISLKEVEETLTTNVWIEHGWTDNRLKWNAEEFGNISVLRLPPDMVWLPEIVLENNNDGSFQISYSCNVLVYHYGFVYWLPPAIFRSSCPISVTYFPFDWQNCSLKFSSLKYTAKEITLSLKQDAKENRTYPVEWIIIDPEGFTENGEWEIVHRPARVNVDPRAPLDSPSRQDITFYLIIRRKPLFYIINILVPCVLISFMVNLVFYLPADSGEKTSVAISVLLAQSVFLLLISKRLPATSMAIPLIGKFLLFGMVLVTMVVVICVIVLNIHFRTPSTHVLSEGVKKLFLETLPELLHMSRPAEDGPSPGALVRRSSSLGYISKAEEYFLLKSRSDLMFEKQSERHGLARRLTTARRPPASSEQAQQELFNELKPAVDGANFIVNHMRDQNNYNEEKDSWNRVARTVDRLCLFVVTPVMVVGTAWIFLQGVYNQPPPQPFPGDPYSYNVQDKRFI
human muscle-type nicotinic receptor, sequence (P02708 21-457): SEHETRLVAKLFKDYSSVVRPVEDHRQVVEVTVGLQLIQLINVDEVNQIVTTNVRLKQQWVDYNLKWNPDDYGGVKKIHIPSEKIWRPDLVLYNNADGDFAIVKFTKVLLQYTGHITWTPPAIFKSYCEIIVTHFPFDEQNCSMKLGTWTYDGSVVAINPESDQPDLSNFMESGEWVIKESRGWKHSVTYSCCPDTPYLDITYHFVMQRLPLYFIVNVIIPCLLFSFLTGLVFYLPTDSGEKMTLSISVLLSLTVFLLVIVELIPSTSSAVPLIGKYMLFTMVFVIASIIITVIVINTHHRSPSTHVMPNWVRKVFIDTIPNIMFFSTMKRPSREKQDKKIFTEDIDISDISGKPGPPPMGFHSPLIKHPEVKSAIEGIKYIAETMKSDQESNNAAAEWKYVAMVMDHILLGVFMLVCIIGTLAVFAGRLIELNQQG
human muscle-type nicotinic receptor, sequence (P11230 24-501, further chain): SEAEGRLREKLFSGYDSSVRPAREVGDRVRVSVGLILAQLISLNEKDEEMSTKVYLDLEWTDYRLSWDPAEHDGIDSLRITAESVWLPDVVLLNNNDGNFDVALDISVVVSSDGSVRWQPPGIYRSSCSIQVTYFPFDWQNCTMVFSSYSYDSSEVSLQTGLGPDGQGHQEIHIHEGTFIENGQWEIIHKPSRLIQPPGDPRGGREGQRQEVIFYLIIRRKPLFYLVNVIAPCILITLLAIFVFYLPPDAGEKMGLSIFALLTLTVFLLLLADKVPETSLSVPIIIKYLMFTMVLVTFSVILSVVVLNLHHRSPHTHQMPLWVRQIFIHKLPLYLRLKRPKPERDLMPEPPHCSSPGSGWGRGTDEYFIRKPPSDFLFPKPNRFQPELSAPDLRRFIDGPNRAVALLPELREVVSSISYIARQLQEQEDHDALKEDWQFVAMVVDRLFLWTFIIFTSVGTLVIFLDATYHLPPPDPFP

[3] = molecular target: T1, human dopamine D1 receptor (Homo sapiens, UniProt P21728); assay: Human dopamine D1 receptor radioligand binding assay (antagonist radioligand); details: 1 μmmole test compound; 0.3 nM [3H]SCH 23390; transfected CHO cell membranes; one single experiment; 0.0003 µM
T1 construct: expressed in transfected cells; host or cells: CHO cells (membrane homogenates)
T1 sequence (P21728 whole entry): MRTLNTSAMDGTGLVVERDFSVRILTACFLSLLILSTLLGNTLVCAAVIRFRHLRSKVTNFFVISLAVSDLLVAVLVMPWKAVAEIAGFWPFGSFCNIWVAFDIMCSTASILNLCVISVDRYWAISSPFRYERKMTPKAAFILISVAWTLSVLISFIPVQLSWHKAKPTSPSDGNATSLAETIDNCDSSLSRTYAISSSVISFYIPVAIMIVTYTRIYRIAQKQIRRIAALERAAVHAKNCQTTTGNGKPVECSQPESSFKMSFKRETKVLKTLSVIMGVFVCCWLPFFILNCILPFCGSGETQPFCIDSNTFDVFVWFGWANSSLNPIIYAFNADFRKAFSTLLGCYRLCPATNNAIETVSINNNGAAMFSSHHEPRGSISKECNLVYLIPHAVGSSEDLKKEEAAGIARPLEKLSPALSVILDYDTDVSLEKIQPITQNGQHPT
Procedure: Human Dopamine D1 Receptor (Antagonist Radioligand):
The purpose is to evaluate the affinity of compounds for the human dopamine D1 receptor in transfected CHO cells determined in a radioligand binding assay according to Zhou et al in Nature (1990) 347:76. The experimental protocol is as follows. Cell membrane homogenates (48 μg protein) are incubated for 60 minutes at 22° C. with 0.3 nM [^3H]SCH 23390 in the absence or presence of the test compound in a buffer containing 50 mM Tris-HCl (pH 7.4), 5 mM KCl, 5 mM MgCl2, 1.5 mM CaCl2 and 5 mM EDTA. Non-specific binding is determined in the presence of 1 μM SCH 23390. Following incubation, the samples are filtered rapidly under vacuum through glass fiber filters (GF/B, Packard) presoaked with 0.3% PEI and rinsed several times with ice-cold 50 mM Tris-HCl using a 96-sample cell harvester (Unifilter, Packard). The filters are dried then counted for radioactivity in a scintillation counter (Topcount, Packard) using a scintillation cocktail (Microscint 0, Packard). The results are expressed as a percent inhibition of the control radioligand specific binding. The standard reference compound is SCH 23390, which is tested in each experiment at several concentrations to obtain a competition curve from which its IC50 is calculated, and from which the % inhibition at 1 μM as indicated in the following table is obtained.

[4] = relative to morphine; cited from earlier work

human α7 neuronal nicotinic receptor, sequence (P36544 23-502): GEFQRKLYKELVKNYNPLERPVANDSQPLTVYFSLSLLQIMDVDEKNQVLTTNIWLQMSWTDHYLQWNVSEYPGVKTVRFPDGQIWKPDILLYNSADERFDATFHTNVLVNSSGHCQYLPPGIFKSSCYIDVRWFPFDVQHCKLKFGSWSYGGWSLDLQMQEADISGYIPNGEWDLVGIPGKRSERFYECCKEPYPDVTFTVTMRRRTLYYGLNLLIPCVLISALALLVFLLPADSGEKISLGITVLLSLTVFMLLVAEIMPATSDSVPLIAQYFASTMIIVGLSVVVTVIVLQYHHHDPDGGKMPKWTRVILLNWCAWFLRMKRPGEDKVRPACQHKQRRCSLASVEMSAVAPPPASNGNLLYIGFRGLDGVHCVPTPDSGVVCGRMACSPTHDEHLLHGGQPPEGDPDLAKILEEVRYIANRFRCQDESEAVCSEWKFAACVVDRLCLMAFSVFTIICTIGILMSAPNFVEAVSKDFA

Work on CCN1CCC2CC1(C(O)c1cccnc1)C2 (stereo not shown) [Compound 11] yielded an inhibition at 50 pM [1] of -1% and an inhibition at 0.0005 µM [2] of 17%.
For CCN1CCC2CC1(C(O)c1cccnc1)C2 (stereo not shown) [Compound 19a], the “% inhibition D1 (h) (antagonist radioligand)” value [3] was 9%.
For Clc1ccc(C2CC3CCC2N3)cn1 (stereo not shown) [epibatidine], the “analgesic potency higher than that of morphine” value [4] is given as “about 200 fold”.
